One series has as its target T1, human topoisomerase II (Homo sapiens, UniProt P11388).
T1 construct: Topo II was purified from late log phase suspension cultures of HeLa WIS; endogenous in cells; host or cells: HeLa WIS suspension cultures, late log phase (enzyme purified from the cells)
Description: Mammalian Topoisomerase II Inhibition Assay (DNA-topo II complex formation). In kind it is biochemical. The following applies: EC50 = concentration with activity equal to EC50 of reference mAMSA; read-out: TopoII Inh. EC50. As to the method:
Mammalian Topoisomerase II Inhibition Assay Procedure
The assay quantitates the amount of topo II covalently complexed by DNA at equilibrium during a topo II reaction. This assay determines the potential of a compound to stabilize this complex, which potential is closely related to the cytotoxicity of the compound.
Assays (in duplicate) were assembled at 4° C.
4 ng 3' end labeled (^32 P) pBR322 DNA (10^7 DMP/μg)
The assay mix including the test compound was incubated for 20 minutes at 37° C. The reaction was terminated at 37° C. by the addition of 3 μl 10% SDS followed by the addition of 266 μl 10 mM Tris-Cl pH 7.5, 20 μg/ml BSA, 20 μg/ml calf thymus DNA, 1% SDS.
A SDS/protein precipitate was formed by the addition of 28 μl 2.5M KCl followed by chilling on ice for a minimum of 10 minutes. The precipitate was collected and washed with a Brandell cell harvester on a GFB glass fiber filter membrane as follows. The contents of the assay tube were drawn up into the harvester. The tube was then rinsed 7X with 10 mM Tris-Cl pH 7.5, 1 mM EDTA and 100 mM KCl. […] After drying, CPM was determined by liquid scintillation counting with 5 ml Biofluor (NEN Research Products) or Readisafe (Beckman Instruments Inc.) cocktail.
This solution then was diluted 1/5 into water and serially thereafter in either 0.02N sodium hydroxide or 0.04N hydrogen chloride, respectively. The stock solution and serial dilution of the test compound was stored at -20° C. prior to testing.
Screening of test compound--As an initial screen, the test compound was tested at a final concentration of 2, 20 and 200 μg/ml. The compound was then retested at a range of concentrations (usually 2-3X steps) bridging their approximate EC50 's, as estimated by the prescreen.
Controls--A solvent control which indicates the base level of topo II-DNA complex formed in the absence of the test compound was included in each test. A control, in which topo II was omitted, was included for each test compound at the highest drug concentration tested.
Reference Agent--A dose response curve with mAMSA at 0.01, 0.08, 0.16, 0.32, 1.0 and 10 μg/ml was included in each test.
The maximal DNA-topo II complex formed is taken as that equal to that formed at the nearly saturating dose of mAMSA (10 μg/ml).

In series [1] the test system is P388 murine leukemia cells. As to the kind of experiment: Malignant cell cytotoxicity, one-hour exposure (clonogenic survival in soft agar). The note with it: Mus musculus, 1 hr exposure, read-out: IC50 P388 1 hr. exp. In kind it is cell-based. As to the method:
(§1) Examples of compound I having Topo II activity were tested for malignant cell cytotoxicity. In vitro cytotoxicity was assayed by determining cell survival following exposure of P388 murine leukemia cells to a range of test compound concentrations. Cytotoxicity was quantitated following either a one-hour exposure or continuous exposure of P388 cells to test compound.
(§2) Cytotoxicity following a one-hour exposure of cells to drug was assayed by quantitating clonogenic cell survival according to a published procedure [Freshney, R. L. (1987) Culture of Animal Cells. A Manual of Basic Technique. Wiley-Liss Inc., New York, N.Y., pp. 140-144]. Briefly, following drug exposure cells were plated in soft agar and incubated (37°, 5% CO2) for 7-10 days during which time viable cells form visible colonies. Cytotoxicity following continuous exposure of cells to test compound was assayed by quantitating total P388 cells on a Coultier Counter following a 48-hour co-incubation of test compound with cells. P388 cells were maintained in log phase throughout the duration of cytotoxicity assays.
(§3) The percentage of cells surviving relative to an untreated control was graphed as a function of increasing drug concentration.

The subject of series [2] is P388 murine leukemia cells. As to the kind of experiment: Malignant cell cytotoxicity, continuous 48-hour exposure (Coulter Counter). In kind it is cell-based. The note with it: Mus musculus, read-out: IC50 P388 cont. exp. How it is done: as §1, §2, §3
Series [3] can be described thus: In vivo antitumor assay, Panc03(sc). The following applies: mouse, in vivo. Also on record: species or system mouse. The text has this:
(§4) Mice: Inbred: C3H/He and NCR-nu; and Hybrids: B6D2Fl (C57BL/6 females X DBA/2 males, CD2Fl (Balb/c females X DBS/2 males) and B6x C3fl (C57BL/6 x C3H) were bred at Wayne State University from strained obtained from the Frederick Cancer Research Facility, Frederick, Md. or purchased from commercial suppliers.
(§5) Tumors: Murine Tumor: P388 and an adriamycin-resistant (ADR) subline P388/ADR leukemia and the following transplantable solid tumors of mice were used for in Vivo testing: B16 melanoma (B16), pancreatic ductal adenocarcinoma No. 03 (Panc 03), colon adenocarcinoma No. 38 (colo 38), mammary ductal adenocarcinoma No. 16/C (Mam16) and an adriamycin-resistantsubline Mam16C/ADR. Human tumor: A single human tumor, mammary carcinoma MX-1 (MX1) was used for in vivo testing. All tumors are in the Developmental Therapeutics Program frozen tumor respository, maintained by the Biological Testing Branch, Frederick Md. Each has a detailed description, code identification number, and list of references at the National Tumor Repository. Murine tumors were maintained in the mouse strain of origin and were transplanted in the appropriate F1 hydrid (or the strain of origin) for therapy trials. Human mammary carcinoma MX-1 MX1) was maintained as a subcutaneous implant in either athymic Swiss (Cr: NIH(S)-nu) or athymic random bred (NCR-nu) mice and transplanted in NCR-nu for therapy trials.
(§6) Chemotherapy: For pancreatic ductal adenocarcinoma No. 3, colon adenocarcinoma No. 38 (colo38), lung carcinoma No. 12 (LC12) and both adriamycin-sensitive (RP) and -resistant ADR) mammary ductal adenocarcinoma No. 16 (Mam16) tumors, the following methods were used to help ensure a more uniform tumor burden per mouse (thus reducing the requirement for greater numbers of mice per group), bilateral tumor implants were used. The animals necessary to begin an experiment were pooled, implanted bilaterally s.c. on day zero with 30-60-mg tumor fragments using a 12-gauge trocar, and again pooled before randomization to the various treatment and control groups. Chemotherapy was started within three days after tumor implantation while the number of cells per mouse was relatively small (1×10^7 […]).
(§7) Quantitative end points used assess antitumor activity included % Increased Life Span (% ILS), Tumor Cell Kill (Log10 kill), and Tumor Growth Inhibition (T/C). Long Term Survivors (45 or 60 day) were excluded from calculations of % ILS and Tumor Cell Kill.
(§8) The log10 cell kill was calculated from the following formula: [formula] where T-C is the tumor difference in the median day of death between the treated (T) and the control (C) groups and Td is the tumor doubling time (in days), the latter estimated from the best fit straight line from a log-linear growth plot of the control-group tumors in exponential growth. The conversion of the T-C values to log10 cell kill is possible because the Td for tumors regrowing post-treatment approximated the Td values of the tumors in untreated control mice.
(§9) Tumors were measured with a caliper once or twice weekly (as needed) until either tumors exceeded 1600 mg or cure was assured. Tumor weights were estimated from two-dimensional measurements: Tumor Weight (mg)=(a×b^2) / 2, where a and b are the tumor length and width (nun) respectively. Measurements were carried out simultaneously in both treatment and control groups. When the control group tumors reached approximately 750-1500 mg in size (median of group), the median tumor weight of each group was determined (including zeros). The T/C value in percent is an indiation of antitumor effectiveness. The % T/C was calculated from the following formula for solid murine tumor models: [formula] where T and C are median tumor weights of the treatment and control groups, respectively. A T/C equal to or less than 42% is considered significant antitumor activity. […]

The test system of series [4] is pancreatic ductal adenocarcinoma No. 03 (Panc 03). As to the kind of experiment: In vivo antitumor assay, Panc03(sc). The arrangement: species or system mouse.
Source text: as §4, §5, §6, §7, §8, §9

The mark [5] stands for this setting: drug route iv, sc, Ex 18 iv qd 3 bid 4-9, sc bid 10-11, Ex 20 iv qd 3,5 bid 4,6-8, sc bid 9-11 qd 12, read-out: MTD.
The mark [6] stands for this setting: drug route iv, sc, Ex 18 iv qd 3 bid 4-9, sc bid 10-11, Ex 20 iv qd 3,5 bid 4,6-8, sc bid 9-11 qd 12.

Structures are written as SMILES. Read-outs that look alike come from different tables or passages of the source.

T1 sequence (P11388 whole entry): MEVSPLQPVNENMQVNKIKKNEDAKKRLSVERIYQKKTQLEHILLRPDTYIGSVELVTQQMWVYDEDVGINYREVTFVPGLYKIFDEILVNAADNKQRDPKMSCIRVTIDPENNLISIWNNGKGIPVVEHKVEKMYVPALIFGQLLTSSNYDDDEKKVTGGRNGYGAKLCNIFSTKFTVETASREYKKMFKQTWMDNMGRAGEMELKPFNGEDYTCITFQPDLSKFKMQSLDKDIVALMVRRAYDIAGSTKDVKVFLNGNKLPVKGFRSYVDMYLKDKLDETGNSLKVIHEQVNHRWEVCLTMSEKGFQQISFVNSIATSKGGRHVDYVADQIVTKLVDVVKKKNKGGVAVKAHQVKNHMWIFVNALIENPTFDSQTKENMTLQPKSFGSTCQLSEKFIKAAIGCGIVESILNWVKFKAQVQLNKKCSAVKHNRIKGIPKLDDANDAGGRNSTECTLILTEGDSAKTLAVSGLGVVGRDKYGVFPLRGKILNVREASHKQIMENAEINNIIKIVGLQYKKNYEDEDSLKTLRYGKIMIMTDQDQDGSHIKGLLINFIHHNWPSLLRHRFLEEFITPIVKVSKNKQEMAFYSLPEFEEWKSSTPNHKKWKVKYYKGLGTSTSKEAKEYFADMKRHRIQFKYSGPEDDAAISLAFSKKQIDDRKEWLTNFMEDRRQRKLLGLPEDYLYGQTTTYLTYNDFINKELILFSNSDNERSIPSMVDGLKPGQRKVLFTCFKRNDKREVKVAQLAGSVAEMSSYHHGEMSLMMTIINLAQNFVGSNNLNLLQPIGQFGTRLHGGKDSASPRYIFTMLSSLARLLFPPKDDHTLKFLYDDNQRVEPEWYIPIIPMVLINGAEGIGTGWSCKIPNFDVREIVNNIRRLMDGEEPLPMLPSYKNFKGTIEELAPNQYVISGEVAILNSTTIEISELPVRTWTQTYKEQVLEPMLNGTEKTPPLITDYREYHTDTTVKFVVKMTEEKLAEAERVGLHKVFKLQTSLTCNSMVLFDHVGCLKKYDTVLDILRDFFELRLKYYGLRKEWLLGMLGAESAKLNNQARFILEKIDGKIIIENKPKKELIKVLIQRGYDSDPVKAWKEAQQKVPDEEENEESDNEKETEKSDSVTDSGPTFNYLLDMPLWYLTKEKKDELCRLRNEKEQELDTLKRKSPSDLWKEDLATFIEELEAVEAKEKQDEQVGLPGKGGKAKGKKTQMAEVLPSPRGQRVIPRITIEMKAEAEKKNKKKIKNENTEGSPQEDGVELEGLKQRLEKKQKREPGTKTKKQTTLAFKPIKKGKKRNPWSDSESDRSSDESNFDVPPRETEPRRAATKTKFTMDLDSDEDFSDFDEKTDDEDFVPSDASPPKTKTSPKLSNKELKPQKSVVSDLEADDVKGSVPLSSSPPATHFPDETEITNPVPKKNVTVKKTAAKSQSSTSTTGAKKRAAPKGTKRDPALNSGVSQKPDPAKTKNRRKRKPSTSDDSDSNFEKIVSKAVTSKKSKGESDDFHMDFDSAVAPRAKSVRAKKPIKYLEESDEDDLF

With `Cc1cc(-c2c(F)cc3c(=O)c(Cc4ccccc4)cn(C4CC4)c3c2F)cc(C)n1` [Example 3], the concentration for a half-maximal effect (EC50) at human topoisomerase II came out at 3.9 µM. The figures for the IC50 in series [1] and in series [2] were 7.3 µM and 7.1 µM, respectively. In series [3] (drug route sc, qd 3-12, footnote 1, read-out: MTD (MTD not achieved, maximum dose tested)), the MTD was more than 3750 mg/kg. In series [4] (drug route sc, Ex 3 qd 3-12, Ex 26 qd 3,5-7 bid 4), this compound showed a T/C % of more than 100%.
For `Cc1cc(-c2c(F)cc3c(=O)c(Cc4ncc[nH]4)cn(C4CC4)c3c2F)cc(C)n1` [Example 18], the EC50 on human topoisomerase II came to 1.1 µM. In series [1], the half-maximal inhibitory concentration (IC50) was found to be 1.1 µM. Besides, the MTD in series [3] (setting [5]) stood at 88 mg/kg. In addition, in series [4] (setting [6]), the T/C % was 21%.
For `Cc1cc(-c2c(F)cc3c(=O)c(Cc4cccc(F)c4OCc4ccccc4)cn(C4CC4)c3c2F)cc(C)n1` [Example 20], the 50% effective concentration (EC50) on human topoisomerase II is more than 90 µM. Further, the IC50 in series [1] was determined as 0.25 µM. Further, the MTD in series [3] (setting [5]) was 336 mg/kg. Besides, in series [4] (setting [6]), the T/C % was 80%.

(Values after patent publication US5330992A, “1-cyclopropyl-4-pyridyl-quinolinones” (priority 1992, dated 1994).)
